Like-named read-outs stand apart in the source and are kept apart here.
Experiments:
[1] = molecular target: T1, cloned human 5-HT1A receptors (Homo sapiens, UniProt P08908); assay: Inhibition of 3H-5-CT binding to human 5-HT1A receptors
T1 construct: expressed in transfected cells; host or cells: HeLa cells (HA7), stably transfected; cell homogenate
T1 sequence (P08908 1-422): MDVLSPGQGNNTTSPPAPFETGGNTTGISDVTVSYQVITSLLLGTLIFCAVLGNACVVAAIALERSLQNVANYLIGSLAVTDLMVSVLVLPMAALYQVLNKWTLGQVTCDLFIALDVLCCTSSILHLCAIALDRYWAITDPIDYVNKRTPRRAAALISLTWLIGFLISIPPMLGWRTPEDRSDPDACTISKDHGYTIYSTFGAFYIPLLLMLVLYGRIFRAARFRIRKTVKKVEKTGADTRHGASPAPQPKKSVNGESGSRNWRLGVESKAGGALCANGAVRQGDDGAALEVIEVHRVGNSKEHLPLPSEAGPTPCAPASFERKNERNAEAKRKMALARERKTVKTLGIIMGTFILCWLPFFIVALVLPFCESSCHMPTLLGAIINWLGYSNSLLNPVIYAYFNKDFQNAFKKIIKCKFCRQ
Procedure: Inhibition of ^3H-5CT Binding to Human 5-HT1A Receptors
Human 5-HT1A receptors (40 μg of cell homogenate) were incubated for 15 minutes at 37° C. in 50 mM Tris buffer at pH 7.7 in the presence of ^3H-5-CT. Non-specific binding was determined by including 10 μM of metergoline. The reaction was terminated by rapid filtration through Unifilter GF/B filters on a Tomtec Cell Harvester. Filters were counted in a Packard Top Counter.

[2] = test system: serotonin reuptake (3H-5-HT uptake into whole rat brain synaptosomes); assay: Inhibition of 3H-5-HT uptake into rat brain synaptosomes; format: biochemical
Procedure: Inhibition of ^3H-5HT Uptake Into Rat Brain Synaptosomes
Using this method, the ability of drugs to inhibit the accumulation of ^3H-5-HT into whole rat brain synaptosomes is determined in vitro.

[3] = cloned human 5-HT1A receptors expressed in HeLa cells (HA7)

Structure (SMILES)	IC50 [1, 3] [nM]	Inhibition of serotonin reuptake % inhibition at 100 nM [2] [% inh. at 100 nM]	IC50 [2] [nM]	inhibition at 0.1 µM ([1]; read-out: Inhibition of 3H-5-CT binding % inhibition at 100 nM, at 100 nM, cloned human 5-HT1A receptors expressed in HeLa cells (HA7)) [%]	IC50 [1] [nM]
CN(CCCC1(c2ccc(F)cc2)OCc2cc(C#N)ccc21)CCOc1ccccc1 (stereo not drawn) [Compound 4g, 1-(4-Fluorophenyl)-1-[3-[[2-phenoxyethyl]methylamino]propyl]-1,3-dihydroisobenzofuran-5carbonitrile]	18	28	–	–	–
CN(CCCc1c[nH]c2ccccc12)CCCC1(c2ccc(F)cc2)OCc2cc(C#N)ccc21 (stereo not drawn) [Compound 4s, 1-[3-[[3-(1H-Indol-3-yl)propyl]methylamino]propyl]-1-(4-fluorophenyl)-1,3-dihydroisobenzofuran-5-carbonitrile]	30	–	35	–	–
COc1cccc(OCCCN(C)CCCC2(c3ccc(F)cc3)OCc3cc(C#N)ccc32)c1 (stereo not drawn) [Compound 4o, 1-(4-Fluorophenyl)-1-[3-[[3-(3-methoxyphenoxy)propyl]methylamino]propyl]-1,3-dihydroisobenzofuran-5-carbonitrile]	26	–	73	–	–
C=CCN(CCCOc1ccccc1OC)CCCC1(c2ccc(F)cc2)OCc2cc(C#N)ccc21 (stereo not drawn) [Compound 4n, 1-(4-Fluorophenyl)-1-[3-[[3-(2-methoxyphenoxy)propyl](prop-2-en-1-yl)amino]propyl]-1,3-dihydroisobenzofuran-5-carbonitrile]	14	39	–	–	–
CCN(CCCc1c[nH]c2ccc(Cl)cc12)CCCC1(c2ccc(F)cc2)OCc2cc(C#N)ccc21 (stereo not drawn) [Compound 12x, 1-[3-[[3-(5-Chloro-1H-indol-3-yl)propyl]ethylamino]propyl]-1-(4-fluorophenyl)-1,3-dihydroisobenzofuran-5-carbonitrile]	14	50	–	–	–
CN(CCCc1c[nH]c2c(F)cccc12)CCCC1(c2ccc(F)cc2)OCc2cc(F)ccc21 (stereo not drawn) [Compound 12d, 5-Fluoro-1-[3-[[3-(7-fluoro-1H-indol-3-yl)propyl]methylamino]propyl]-1-(4-fluorophenyl)-1,3dihydroisobenzofuran]	31	–	12	–	–
CCN(CCCc1c[nH]c2ccccc12)CCCC1(c2ccc(F)cc2)OCc2cc(C#N)ccc21 (stereo not drawn) [Compound 12f]	4.7	–	13	–	–
C=CCN(CCCC1(c2ccc(F)cc2)OCc2cc(C#N)ccc21)CCc1c[nH]c2ccc(Cl)cc12 (stereo not drawn) [Compound 13f]	31	16	–	–	–
CN(CCCC1(c2ccc(F)cc2)OCc2cc(C#N)ccc21)CCc1c[nH]c2ccccc12 (stereo not drawn) [Compound 4a, 1-[3-[[2-(1H-Indol-3-yl)ethyl]methylamino]propyl]-1-(4-fluorophenyl)-1,3-dihydroisobenzofuran-5-carbonitrile]	23	–	54	–	–
CCN(CCCC1(c2ccc(F)cc2)OCc2cc(C#N)ccc21)CCc1c[nH]c2c(F)cc(F)cc12 (stereo not drawn) [Compound 12u, 1-[3-[[2-(5,7-Difluoro-1H-indol-3-yl)ethyl]ethylamino]propyl]-1-(4-fluorophenyl)-1,3-dihydroisobenzofuran-5-carbonitrile]	9	–	22	–	–
CCN(CCCc1c[nH]c2ccc(F)cc12)CCCC1(c2ccc(F)cc2)OCc2cc(C#N)ccc21 (stereo not drawn) [Compound 12q, 1-[3-[Ethyl[3-(5-fluoro-1H-indol-3-yl)propyl]amino]propyl]-1-(4-fluorophenyl)-1,3-dihydroisobenzofuran-5carbonitrile]	12	–	6.3	–	–
C=CCN(CCCc1ccccc1OC)CCCC1(c2ccc(F)cc2)OCc2cc(C#N)ccc21 (stereo not drawn) [Compound 4k, 1-(4-Fluorophenyl)-1-[3-[[3-(2-methoxyphenyl)propyl](prop-2-en-1-yl)amino]propyl]-1,3-dihydroisobenzofuran-5-carbonitrile]	0.42	–	100	–	–
C=CCN(CCCc1c[nH]c2ccccc12)CCCC1(c2ccc(F)cc2)OCc2cc(C#N)ccc21 (stereo not drawn) [Compound 4t, 1-[3-[[3-(1H-Indol-3-yl)propyl](prop-2-en-1-yl)amino]propyl]-1-(4-fluorophenyl)-1,3-dihydroisobenzofuran-5-carbonitrile]	–	73	–	69	–
C=CCN(CCCC1(c2ccc(F)cc2)OCc2cc(C#N)ccc21)CCOCc1ccccc1 (stereo not drawn) [Compound 4r, 1-[3-[(2-Benzyloxyethyl)(prop-2-en-1-yl)amino]propyl]-1-(4-fluorophenyl)-1,3-dihydroisobenzofuran-5-carbonitrile]	11	19	–	–	–
CCN(CCCC1(c2ccc(F)cc2)OCc2cc(C#N)ccc21)CCc1c[nH]c2ccc(I)cc12 (stereo not drawn) [Compound 12ae]	11	49	–	–	–
CCCN(CCCC1(c2ccc(F)cc2)OCc2cc(C#N)ccc21)CCc1c[nH]c2c(F)cc(F)cc12 (stereo not drawn) [Compound 13g, 1-[3-[[2-(5,7-Difluoro-1H-indol-3-yl)ethyl]propylamino]propyl]-1-(4-fluorophenyl)-1,3-dihydroisobenzofuran-5-carbonitrile]	18	49	–	–	–
COc1ccc(OC)c(CCN(C)CCCC2(c3ccc(F)cc3)OCc3cc(C#N)ccc32)c1 (stereo not drawn) [Compound 4e, 1-[3-[[2-(2,5-Dimethoxyphenyl)ethyl]methylamino]propyl]-1-(4-fluorophenyl)-1,3-dihydroisobenzofuran-5-carbonitrile]	–	–	160	–	17
C=CCN(CCCC1(c2ccc(F)cc2)OCc2cc(C#N)ccc21)CCc1c[nH]c2c(C)ccc(Cl)c12 (stereo not drawn) [Compound 13j, 1-[3-[[2-(4-Chloro-7-methyl-1H-indol-3-yl)ethyl](prop-2-en-1-yl)amino]propyl]-1-(4-fluorophenyl)-1,3-dihydroisobenzofuran-5-carbonitrile]	16	61	–	–	–
CCN(CCCC1(c2ccc(F)cc2)OCc2cc(C#N)ccc21)CCc1c[nH]c2ccc(F)cc12 (stereo not drawn) [Compound 12j, 1-[3-[Ethyl[2-(5-fluoro-1H-indol-3-yl)ethyl]amino]propyl]-1-(4fluorophenyl)-1,3-dihydroisobenzofuran-5-carbonitrile]	7.9	–	14	–	–
CN(CCCc1cccc2c1OCCO2)CCCC1(c2ccc(F)cc2)OCc2ccccc21 (stereo not drawn) [Compound 2j, 5-[3-[[3-[1-(4-Fluorophenyl)-1,3-dihydroisobenzofuran-1-yl]propyl]methylamino]propyl]-1,4benzodioxane]	41	–	9.7	–	–
C=CCN(CCCC1(c2ccc(F)cc2)OCc2cc(C#N)ccc21)CCc1c[nH]c2ccc(F)cc12 (stereo not drawn) [Compound 13b, 1-[3-[[2-(5-Fluoro-1H-indol-3-yl)ethyl](prop-2-en-1-yl)amino]propyl]-1-(4-fluorophenyl)-1,3-dihydroisobenzofuran-5-carbonitrile]	7.4	–	44	–	–
CCN(CCCC1(c2ccc(F)cc2)OCc2cc(C#N)ccc21)CCc1c[nH]c2ccc(Br)cc12 (stereo not drawn) [Compound 12ab, 1-[3-[[2-(5-Bromo-1H-indol-3-yl)ethyl]ethylamino]propyl]-1-(4-fluorophenyl)-1,3-dihydroisobenzofuran-5-carbonitrile]	20	50	–	–	–
COc1ccccc1CCCN(C)CCCC1(c2ccc(F)cc2)OCc2cc(C#N)ccc21 (stereo not drawn) [Compound 4j, 1-(4Fluorophenyl)-1-[3-[[3-(2-methoxyphenyl)propyl]methylamino]propyl]-1,3-dihydroisobenzofuran-5-carbonitrile]	6.1	–	78	–	–
CCN(CCCc1c[nH]c2ccc(Br)cc12)CCCC1(c2ccc(F)cc2)OCc2cc(C#N)ccc21 (stereo not drawn) [Compound 12ad, 1-(3-[[3-(5-Bromo-1H-indol-3-yl)propyl]ethylamino]propyl]-1-(4fluorophenyl)-1,3-dihydroisobenzofuran-5-carbonitrile]	21	35	–	–	–
CN(CCCC1(c2ccc(F)cc2)OCc2cc(C#N)ccc21)CCOCc1ccccc1 (stereo not drawn) [Compound 4q, 1-[3-[(2-Benzyloxyethyl)methylamino]propyl]-1-(4-fluorophenyl)-1,3-dihydroisobenzofuran-5-carbonitrile]	16	60	–	–	–
CN(CCCc1c[nH]c2ccc(F)cc12)CCCC1(c2ccc(F)cc2)OCc2cc(C#N)ccc21 (stereo not drawn) [Compound 12i, 1-[3-[[3-(5-Fluoro-1H-indol-3-yl)propyl]methylamino]propyl]-1-(4-fluorophenyl)-1,3-dihydroisobenzofuran-5-carbonitrile]	27	–	20	–	–
CN(CCCCc1c[nH]c2ccccc12)CCCC1(c2ccccc2)OCc2ccccc21 (stereo not drawn) [Compound 2e, 1-[3-[[4-(1H-Indol-3-yl)butyl]methylamino]propyl]1-phenyl-1,3-dihydroisobenzofuran]	38	–	15	–	–

— patent publication US6492374B2, “Benzofuran derivatives, their preparation and use” (H. Lundbeck A/S, priority 1998, dated 2002)
